Results: patent EP0694535A1, “Non-peptidyl tachykinin receptor antagonists” (ELI LILLY AND COMPANY, priority 1994, dated 1996)

What follows are compounds tested against T1, NK-1 receptor (Homo sapiens, UniProt P25103) (assay: NK-1 Receptor Binding Assay (competition with labeled substance P on IM9 cells)). Conditions: at 10μM, inhibition of substance P binding to the NK-1 receptor, read-out: Percent Inhibition.
T1 construct: an aliquot of IM9 cells; endogenous in cells; host or cells: IM9 cells (whole cells)
T1 sequence (P25103 whole entry): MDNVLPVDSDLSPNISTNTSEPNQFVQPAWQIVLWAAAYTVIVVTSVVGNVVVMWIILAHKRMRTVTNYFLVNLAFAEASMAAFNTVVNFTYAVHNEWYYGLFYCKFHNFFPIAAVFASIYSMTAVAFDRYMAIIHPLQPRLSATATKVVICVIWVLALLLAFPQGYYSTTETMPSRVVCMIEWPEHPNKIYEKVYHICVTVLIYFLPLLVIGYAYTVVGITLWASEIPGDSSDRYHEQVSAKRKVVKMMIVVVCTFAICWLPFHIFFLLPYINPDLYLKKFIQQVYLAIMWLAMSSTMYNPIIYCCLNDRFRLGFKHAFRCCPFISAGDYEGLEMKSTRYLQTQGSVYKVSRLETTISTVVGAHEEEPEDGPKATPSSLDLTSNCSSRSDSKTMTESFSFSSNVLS
Protocol: Radioreceptor binding assays were performed using a derivative of a previously published protocol. D.G. Payan, et al., Journal of Immunology, 133:3260-3265 (1984). In this assay an aliquot of IM9 cells (1 x 10⁶ cells/tube in […] medium supplemented with 10% fetal calf serum) was incubated with 20 pM […] substance P in the presence of increasing competitor concentrations for 45 minutes at 4°C.
The IM9 cell line is a well-characterized cell line which is readily available to the public. See. e.g., Annals of the New York Academy of Science, 190: 221-234 (1972); Nature (London), 251:443-444 (1974); Proceedings of the National Academy of Sciences (USA), 71:84-88 (1974). These cells were routinely cultured in RPMI 1640 supplemented with 50 µg/ml gentamicin sulfate and 10% fetal calf serum.
The reaction was terminated by filtration through a glass fiber filter harvesting system using filters previously soaked for 20 minutes in 0.1% polyethylenimine. Specific binding of labeled substance P was determined in the presence of 20 nM unlabeled ligand.
Column 1 provides the example number of the test antagonist compound. The next columns detail the substitution patterns of the test compound.

Row | Compound | inhibition at 10 µM [%]
1 | COc1cc(-c2nc3ccccc3n2Cc2ccc(Cl)cc2Cl)cc(OC)c1OC [Example 54, 1-(2,4-dichlorobenzyl)-2-(3,4,5-trimethoxyphenyl)-benzimidazole] | 56

Same assay, conditions: concentration which inhibits fifty percent of the binding of substance P, 20 pM labeled substance P, 45 minutes at 4°C

Row | Compound | IC50 [µM]
2 | COc1cc(-c2nc3ccccc3n2Cc2ccccc2Cl)cc(OC)c1OC [Example 41, 1-(2-chlorobenzyl)-2-(3,4,5-trimethoxyphenyl)-benzimidazole] | 0.815
3 | Cc1cccc(-c2nc3ccccc3n2Cc2cccc(Cl)c2)c1 [Example 57, 1-(3-Chlorobenzyl)-2-(3-methylphenyl)benzimidazole] | 2.65
4 | COc1cc(-c2nc3ccccc3n2Cc2ccccc2C)cc(OC)c1OC [Example 43, 1-(2-methylbenzyl)-2-(3,4,5-trimethoxyphenyl)-benzimidazole] | 0.842
5 | COc1cc(-c2nc3ccc(OCCCl)cc3n2Cc2ccccc2)cc(OC)c1OC [Example 76, 1-benzyl-2-(3,4,5-trimethoxyphenyl)-6-(2-chloroethoxy)benzimidazole] | 0.329

Each compound was assayed against T2, human NK-2 receptor (Homo sapiens, UniProt P21452) (assay: NK-2 Receptor Binding Assay (CHO-hNK-2R membranes, iodohistidyl-neurokinin A)). Conditions: inhibition of neurokinin A binding at ten micromolar, read-out: Percent Inhibition @ 10 μM.
T2 construct: expressed in transfected cells; host or cells: CHO-hNK-2R cells (CHO-derived), membrane preparation
T2 sequence (P21452 1-398): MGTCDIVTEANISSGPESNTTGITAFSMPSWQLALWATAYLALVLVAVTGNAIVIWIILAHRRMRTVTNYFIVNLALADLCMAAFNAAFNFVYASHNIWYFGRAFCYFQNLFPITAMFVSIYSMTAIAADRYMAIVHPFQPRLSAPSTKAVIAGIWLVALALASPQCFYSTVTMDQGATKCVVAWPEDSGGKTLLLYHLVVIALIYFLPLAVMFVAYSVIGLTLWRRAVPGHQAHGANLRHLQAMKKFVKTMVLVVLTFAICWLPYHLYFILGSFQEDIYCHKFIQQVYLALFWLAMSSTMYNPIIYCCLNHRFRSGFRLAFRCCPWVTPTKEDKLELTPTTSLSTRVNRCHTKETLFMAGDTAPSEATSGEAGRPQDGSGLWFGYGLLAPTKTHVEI
Protocol: The CHO-hNK-2R cells, a CHO-derived cell line transformed with the human NK-2 receptor, expressing about 400,000 such receptors per cell, were grown in 75 cm flasks or roller bottles in minimal essential medium (alpha modification) with 10% fetal bovine serum. The gene sequence of the human NK-2 receptor is given in N.P. Gerard, et al., Journal of Biological Chemistry, 265:20455-20462 (1990).
For preparation of membranes, 30 confluent roller bottle cultures were dissociated by washing each roller bottle with 10 ml of Dulbecco's phosphate buffered saline (PBS) without calcium and magnesium, followed by addition of 10 ml of enzyme-free cell dissociation solution (PBS-based, from Specialty Media, Inc.). After an additional 15 minutes, the dissociated cells were pooled and centrifuged at 1,000 RPM for 10 minutes in a clinical centrifuge. Membranes were prepared by homogenization of the cell pellets in 300 ml 50 mM Tris buffer, pH 7.4 with a Tekmar® homogenizer for 10-15 seconds, followed by centrifugation at 12,000 RPM (20,000 x g) for 30 minutes using a Beckman JA-14® rotor. The pellets were washed once using the above procedure. and the final pellets were resuspended in 100-120 ml 50 mM Tris buffer, pH 7.4, and 4 ml aliquots stored frozen at -70 °C. The protein concentration of this preparation was 2 mg/ml.
For the receptor binding assay, one 4-ml aliquot of the CHO-hNK-2R membrane preparation was suspended in 40 ml of assay buffer containing 50 mM Tris, pH 7.4, 3 mM manganese chloride, 0.02% bovine serum albumin (BSA) and 4 µg/ml chymostatin. A 200 µl volume of the homogenate (40 µg protein) was used per sample. The radioactive ligand was [[…]]iodohistidyl-neurokinin A (New England Nuclear, NEX-252), 2200 Ci/mmol. The ligand was prepared in assay buffer at 20 nCi per 100 µl; the final concentration in the assay was 20 pM. Non-specific binding was determined using 1 µM eledoisin. Ten concentrations of eledoisin from 0.1 to 1000 nM were used for a standard concentration-response curve.
All samples and standards were added to the incubation in 10 µl dimethylsulfoxide (DMSO) for screening (single dose) or in 5 µl DMSO for IC₅₀ determinations. The order of additions for incubation was 190 or 195 µl assay buffer, 200 µl homogenate, 10 or 5 µl sample in DMSO, 100 µl radioactive ligand. The samples were incubated 1 hr at room temperature and then filtered on a cell harvester through filters which had been presoaked for two hours in 50 mM Tris buffer, pH 7.7, containing 0.5% BSA. The filter was washed 3 times with approximately 3 ml of cold 50 mM Tris buffer, pH 7.7. The filter circles were then punched into 12 x 75 mm polystyrene tubes and counted in a gamma counter.
Table II, infra, provides a representative sample of the effectiveness as NK-2 receptor antagonists of many of the compounds of Formula I. The first column provides the Example number of the compound tested. The second column provides either the percent inhibition of neurokinin A binding when the compound is present in a ten micromolar concentration or the amount of compound (in micromolar amounts) necessary to inhibit fifty percent of the binding of neurokinin A. Those values which represent IC₅₀ values are designated by parentheses.

Row | Compound | inhibition at 10 µM [%]
6 | COc1cc(-c2nc3ccccc3n2Cc2ccc(Cl)cc2Cl)cc(OC)c1OC [Example 54, 1-(2,4-dichlorobenzyl)-2-(3,4,5-trimethoxyphenyl)-benzimidazole] | 86.2
7 | Cc1cccc(-c2nc3ccc(OCCCN(C)C)cc3n2Cc2ccccc2)c1 [Example 94, 1-benzyl-2-(3-methylphenyl)-6-[3-(N,N-dimethylamino)propoxy]benzimidazole] | 38.4
8 | Cc1cccc(-c2nc3ccccc3n2Cc2cccc(Cl)c2)c1 [Example 57, 1-(3-Chlorobenzyl)-2-(3-methylphenyl)benzimidazole] | 50.8
9 | Cc1cccc(-c2nc3ccc(OCCN4CCOCC4)cc3n2Cc2ccccc2)c1 [Example 87, 1-benzyl-2-(3-methylphenyl)-6-[2-(4-morpholinyl)ethoxy]benzimidazole] | 81.9
10 | Cc1cccc(-c2nc3ccc(OCCN4CCCCCC4)cc3n2Cc2ccccc2)c1 [Example 92, 1-benzyl-2-(3-methylphenyl)-6-[2-(hexamethyleneimin-1-yl)ethoxy]benzimidazole] | 82.5
11 | Cc1cccc(-c2nc3ccc(OCCN(Cc4ccccc4)Cc4ccccc4)cc3n2Cc2ccccc2)c1 [Example 89, 1-benzyl-2-(3-methylphenyl)-6-[2-(N,N-dibenzylamino)ethoxy]benzimidazole] | 24.5
12 | CCN(CC)CCOc1ccc2nc(-c3cccc(C)c3)n(Cc3ccccc3)c2c1 [Example 93, 1-benzyl-2-(3-methylphenyl)-6-[2-(N,N-diethylamino)ethoxy]benzimidazole] | 42
13 | Cc1cccc(-c2nc3ccc(OCCCCl)cc3n2Cc2ccccc2)c1 [Example 97, 1-benzyl-2-(3-methylphenyl)-6-(3-chloropropoxy)-benzimidazole] | 64.4
14 | Cc1cccc(-c2nc3ccc(OCCCN4CCCCC4)cc3n2Cc2ccccc2)c1 [Example 95, 1-benzyl-2-(3-methylphenyl)-6-[3-(piperdin-1-yl)propoxy]benzimidazole] | 80.4
15 | Cc1cccc(-c2nc3ccc(OCCN(C(C)C)C(C)C)cc3n2Cc2ccccc2)c1 [Example 91, 1-benzyl-2-(3-methylphenyl)-6-[2-(N,N-isopropylamino)ethoxy]benzimidazole] | 60.7

Now from value to compound:

Row | inhibition at 10 µM [%] | Compound
16 | 57.4 | COc1cc(-c2nc3ccc(O)cc3n2Cc2ccccc2Br)cc(OC)c1OC [Example 114, 1-(2-bromobenzyl)-2-(3,4,5-trimethoxyphenyl)-6-hydroxybenzimidazole]
17 | 39.3 | COc1cc(-c2nc3ccc(O)cc3n2Cc2ccccc2C(F)(F)F)cc(OC)c1OC [Example 104, 1-(2-trifluoromethylbenzyl)-2-(3,4,5-trimethoxyphenyl)-6-hydroxybenzimidazole]
18 | 34 | Cc1cccc(-c2nc3ccc(OCC(C)N(C)C)cc3n2Cc2ccccc2)c1 (stereo not shown) [Example 96, 1-benzyl-2-(3-methylphenyl)-6-[2-(N,N-dimethylamino)propoxy]-benzimidazole]
19 | 73.7 | COc1cc(-c2nc3ccccc3n2Cc2ccccc2Cl)cc(OC)c1OC [Example 41, 1-(2-chlorobenzyl)-2-(3,4,5-trimethoxyphenyl)-benzimidazole]
20 | 68.4 | COc1cc(-c2nc3ccccc3n2Cc2ccccc2C)cc(OC)c1OC [Example 43, 1-(2-methylbenzyl)-2-(3,4,5-trimethoxyphenyl)-benzimidazole]
21 | 48.5 | Cc1cccc(-c2nc3ccc(OCCN4CCCC4)cc3n2Cc2ccccc2)c1 [Example 86, 1-benzyl-2-(3-methylphenyl)-6-[2-(1-pyrrolidinyl)ethoxy]benzimidazole]
22 | 55.9 | Cc1cccc(-c2nc3ccc(O)cc3n2Cc2ccccc2C(F)(F)F)c1 [Example 120, 1-(2-trifluoromethylbenzyl)-2-(3-methylphenyl)-6-hydroxybenzimidazole]
23 | 31.6 | Cc1cccc(-c2nc3ccc(OCCN(C)C)cc3n2Cc2ccccc2)c1 [Example 88, 1-benzyl-2-(3-methylphenyl)-6-[2-(N,N-dimethylamino)ethoxy]benzimidazole]
24 | 34 | CCN(CCOc1ccc2nc(-c3cccc(C)c3)n(Cc3ccccc3)c2c1)c1ccccc1 [Example 90, 1-benzyl-2-(3-methylphenyl)-6-[2-(N-phenyl-N-ethylamino)ethoxy]benzimidazole]

Same assay, conditions: values in parentheses, amount necessary to inhibit fifty percent of the binding of neurokinin A

Row | Compound | IC50 [µM]
25 | Cc1cccc(-c2nc3ccc(OCCCl)cc3n2Cc2ccccc2)c1 [Example 98, 1-benzyl-2-(3-methylphenyl)-6-(2-chloroethoxy)-benzimidazole] | 7.24
26 | Cc1cccc(-c2nc3ccc(OCCCN4CCOCC4)cc3n2Cc2ccccc2)c1 [Example 99, 1-benzyl-2-(3-methylphenyl)-6-[3-(morpholin-4-yl)propoxy)benzimidazole] | 3.08

More lines, now with the values ahead:

Row | IC50 [µM] | Compound
27 | 4.29 | COc1cc(-c2nc3ccc(OCCN4CCCCC4)cc3n2Cc2ccccc2Br)cc(OC)c1OC [Example 115, 1-(2-bromobenzyl)-2-(3,4,5-trimethoxyphenyl)-6-[2-(piperidin-1-yl)ethoxy]benzimidazole]
28 | 1.04 | Cc1cccc(-c2nc3ccc(OCCCN4CCCCCC4)cc3n2Cc2ccccc2)c1 [Example 101, 1-benzyl-2-(3-methylphenyl)-6-[3-(hexamethyleneimin-1-yl)propoxy)benzimidazole]
29 | 7.48 | COc1cc(-c2nc3ccc(OCCCl)cc3n2Cc2ccccc2)cc(OC)c1OC [Example 76, 1-benzyl-2-(3,4,5-trimethoxyphenyl)-6-(2-chloroethoxy)benzimidazole]
30 | 5.17 | COc1cc(-c2nc3ccc(OCCN4CCCCC4)cc3n2Cc2ccccc2C(F)(F)F)cc(OC)c1OC [Example 105, 1-(2-trifluoromethylbenzyl)-2-(3,4,5-trimethoxyphenyl)-6-[2-(piperidin-1-yl)ethoxy]benzimidazole]
31 | 6.8 | Cc1cccc(-c2nc3ccc(OCCCN4CCCC4)cc3n2Cc2ccccc2)c1 [Example 100, 1-benzyl-2-(3-methylphenyl)-6-[3-(pyrrolidin-1-yl)propoxy)benzimidazole]
